Several values for one entry are separate records, joined by “and”; a condition that tells them apart may be missing. Equal entries are not always repeated. Values belong to the molecule of their own block, whether it stands above or below them.
Legend:
BTK [1] = biological target: T1, BTK (Canis lupus familiaris, UniProt A0A8I3P3Z9); experiment: PD data from dog (BTK degradation); assay type: in vivo; conditions: blood
T1 construct: from tissue
Text: (§1) In this example, compounds were profiled for activity in non-mouse species.

TMD8 tumor cells = experiment: TMD8 xenograft efficacy study (wild-type BTK); assay type: in vivo, mouse; conditions: TMD8 WT
Protocol: […] Tumor growth inhibition (% TGI) were calculated on the final day of measurement using the equation [1−(T−T0/C−T0)]×100, where T and C represent the mean size of tumors in the treated (T) and control (C) groups, and T0 refers to the tumor size at randomization.
(§2) This example examines the activity of various BTK CTMs in relevant disease models, including the WT and C481S TMD8 model, which models B cell malignancies with/without inhibitor-driven BTK mutations at C481.

1:1 TMD8 WT:TMD8 C481S = experiment: Mouse xenograft efficacy study, 1:1 TMD8 WT:TMD8 C481S model; assay type: in vivo; conditions: PO, 30 mg/kg, BID, 21 days of dosing
Text: (§3) Efficacy in Mouse Xenograft Models
as §2

BTK [2] = biological target: BTK (Homo sapiens, UniProt Q06187); experiment: BTK remaining in TMD8 WT mouse xenograft study; assay type: in vivo; parameters: from tissue; host or cells: TMD8 xenograft in CB.17 SCID mice
Text: as §3, §2

BTK C481S = BTK C481S (Homo sapiens, UniProt Q06187, C481S); experiment: BTK remaining in TMD8 C481S mouse xenograft study; assay type: in vivo; parameters: from tissue; host or cells: TMD8 BTK-C481S xenograft in CB.17 SCID mice; conditions: PO, 23 days of dosing
Text: as §3, §2

BTK [3] = biological target: T2, BTK (Rattus norvegicus, UniProt Q5S255); experiment: PD data from rat (BTK degradation); assay type: in vivo; conditions: blood
T2 construct: from tissue
Text: as §1

[4] = PO (water bottle), 15 mg/kg, QD (water bottle), 21 days of dosing
[5] = PO (water bottle), 35 mg/kg, QD (water bottle), 23 days of dosing

% BTK Remaining (BTK [1]; 10 mg/kg PO, 2 h): 88%
% BTK Remaining (BTK [1]; 10 mg/kg PO, 4 h): 56%
% BTK Remaining (BTK [1]; 10 mg/kg PO, 8 h): 35%
% BTK Remaining (BTK [1]; 10 mg/kg PO, 24 h): 19%
% BTK Remaining (BTK [1]; 30 mg/kg PO, 2 h): 87%
% BTK Remaining (BTK [1]; 30 mg/kg PO, 4 h): 58%
% BTK Remaining (BTK [1]; 30 mg/kg PO, 8 h): 28%
% BTK Remaining (BTK [1]; 30 mg/kg PO, 24 h): 14%
BTK Remaining (% relative to vehicle) (BTK [2]; [4]): 7%
BTK Remaining (% relative to vehicle) (BTK [2]; [5]): 18%
BTK Remaining (% relative to vehicle) (BTK [2]; PO, 30 mg/kg, QD, 21 days of dosing): 32% and 20%
BTK Remaining (% relative to vehicle) (BTK C481S; 5 mg/kg, BID): 44%
BTK Remaining (% relative to vehicle) (BTK C481S; 10 mg/kg, QD): 38%
BTK Remaining (% relative to vehicle) (BTK C481S; 15 mg/kg, BID): 25%
BTK Remaining (% relative to vehicle) (BTK C481S; 30 mg/kg, BID): 39% and 35%
BTK Remaining (% relative to vehicle) (BTK C481S; 30 mg/kg, QD): 51% and 42%
BTK Remaining (% relative to vehicle) (BTK C481S; 60 mg/kg, QD): 36%
SMILES: CN1CCN([C@@H]2CCCN(c3cnc(C(N)=O)c(Nc4ccc(C5CCN(C[C@H]6CCN(c7ccc8c(c7)C(=O)N(C7CCC(=O)NC7=O)C8=O)C6)CC5)cc4)n3)C2)C1=O (stereo partly shown) [Compound 44]
Tumor Growth Inhibition (relative to vehicle) (TMD8 tumor cells; [4]): 29%
Tumor Growth Inhibition (relative to vehicle) (TMD8 tumor cells; [5]): 89%
Tumor Growth Inhibition (relative to vehicle) (TMD8 tumor cells; PO, 7.5 mg/kg, BID, 21 days of dosing): 100%
Tumor Growth Inhibition (relative to vehicle) (TMD8 tumor cells; PO, 15 mg/kg, BID, 21 days of dosing): 100%
Tumor Growth Inhibition (relative to vehicle) (TMD8 tumor cells; PO, 30 mg/kg, BID, 23 days of dosing): 99%
Tumor Growth Inhibition (relative to vehicle) (TMD8 tumor cells; PO, 30 mg/kg, QD, 23 days of dosing): 83%
Tumor Growth Inhibition (relative to vehicle) (TMD8 tumor cells; PO, 90 mg/kg, BID, 23 days of dosing): 100%
Tumor Growth Inhibition (relative to vehicle) (TMD8 tumor cells; PO, 90 mg/kg, QD, 23 days of dosing): 93%
Tumor Growth Inhibition (relative to vehicle) (1:1 TMD8 WT:TMD8 C481S): 54%

SMILES: NC(=O)c1ncc(N2CCCCC2)nc1Nc1ccc(C2CCN(C[C@@H]3CCN(c4ccc5c(c4)C(=O)N(C4CCC(=O)NC4=O)C5=O)C3)CC2)cc1 (stereo partly shown) [Compound 149]
% BTK Remaining (BTK [1]; 1 mg/kg IV, 2 h): 43%
% BTK Remaining (BTK [1]; 1 mg/kg IV, 4 h): 22%
% BTK Remaining (BTK [1]; 1 mg/kg IV, 8 h): 10%
% BTK Remaining (BTK [1]; 1 mg/kg IV, 24 h): 11%
% BTK Remaining (BTK [1]; 10 mg/kg PO, 2 h): 61%
% BTK Remaining (BTK [1]; 10 mg/kg PO, 4 h): 47%
% BTK Remaining (BTK [1]; 10 mg/kg PO, 8 h): 29%
% BTK Remaining (BTK [1]; 10 mg/kg PO, 24 h): 17%

% BTK Remaining (BTK [3]; 1 mg/kg IV, 4 h): <1%
% BTK Remaining (BTK [3]; 1 mg/kg IV, 24 h): <1%
% BTK Remaining (BTK [3]; 10 mg/kg PO, 4 h): <1%
% BTK Remaining (BTK [3]; 10 mg/kg PO, 24 h): <1%
% BTK Remaining (BTK [3]; 30 mg/kg PO, 4 h): <1%
% BTK Remaining (BTK [3]; 30 mg/kg PO, 24 h): <1%
SMILES: CN1CCN([C@H]2CCCN(c3cnc(C(N)=O)c(Nc4ccc(C5CCN(CC6CCN(c7ccc(C(=O)NC8CCC(=O)NC8=O)nc7)CC6)CC5)cc4)n3)C2)C1=O (stereo partly shown) [Compound 130]
